Laboratory results reported in patent US4579865A, “Benzofuranyl carbamates” (USV Pharmaceutical Corp., priority 1984, dated 1986).

Legend:
rat adipocyte lipolysis = test: Rat adipocyte assay (epinephrine-stimulated lipolysis, glycerol release); format: cell-based; conditions: rat adipocytes, epinephrine 3 μM plus methylisobutylxanthine 10 μM, 1 hour 37° C., read-out: Adipocyte I50
Experimental: Abdominal fat pads were removed from male rats weighing 200-250 grams and placed in Krebs-bicarbonate buffer gassed with 95% O2 /5% CO2. The fat pads were digested with collagenase for 1 hour at 37° C., washed twice with Krebs-bicarbonate buffer and distributed among a set of 20 ml plastic counting vials. Two such vials received only buffer and cells (4 ml) but no agonists or antagonists. The remaining vials received epinephrine (3 μM) plus the phosphodiesterase inhibitor methylisobutylxanthine (10 μM). Test compounds were dissolved in DMSO or water to a concentration of […] and 40 μl was added to the buffer plus cells in the counting vials. The final compound concentration for routine screening was 200 μM (final concentration of DMSO=1%).
The cells were incubated for 1 hour at 37° C. under a 95% O2 /5% CO2 atmosphere. The incubation was stopped by placing the vials in crushed ice. The cells and medium were transferred to test tubes, centrifuged and the cell layer removed by aspiration. The aqueous phase was assayed for glycerol using the enzyme glycerol dehydrogenase. The glycerol dihydrogenase assay for glycerol depends on the enzyme catalyzed conversion of glycerol to glyceraldehyde and NAD to NADH. The assay can detect as little as 5-10 nanomoles of glycerol. The aqueous phase, following removal of cells, usually contained about 50 to 80 nanomoles of glycerol per 300 μl of assayed sample if no inhibitory activity was present. Samples from the control tubes (no agonist) usually contained 0-5 nanomoles of glycerol per 300 μl of sample.

Canine cardiac lipases = test: Myocardial lipase assay; format: biochemical; conditions: triolein emulsion, pH 6.8, read-out: Lipase I50
Experimental: All compounds were dissolved in DMSO (final concentration 3.0%) and tested in duplicate at a concentration of 100 μM. Canine cardiac lipases were obtained by extracting washed heart membranes with buffer plus heparin and a small amount of Triton X-100 detergent. Because these enzymes are only active at an oil-water interface, the enzyme reaction is run in an oil-water emulsion that contains triolein substrate, Tris buffer (50 mM, pH 6.8) and a small amount of bovine serum albumin (0.5%) added to stabilize the emulsion. A small amount of tritiated triolein was added to the unlabelled triolein substrate. Tritium-labelled oleic acid released by the lipases was extracted into hexane, separated from unreacted triolein and counted in a scintillation counter. Inhibitory agents reduce the amount of radioactivity appearing in the free fatty acid fraction isolated in the extraction procedure.

In Vivo Lipolysis = test: In vivo lipolysis assay (serum unesterified fatty acids in fasted rats); design: species or system rat; conditions: 2 hours after drug

Row | SMILES | IC50 (rat adipocyte lipolysis) [nM] | IC50 (Canine cardiac lipases) [µM] | In Vivo Lipolysis % Inhib. at mg/Kg (In Vivo Lipolysis; 25 mg/Kg p.o.) [%] | In Vivo Lipolysis % Inhib. at mg/Kg (In Vivo Lipolysis; 100 mg/Kg p.o.) [%] | In Vivo Lipolysis % Inhib. at mg/Kg (In Vivo Lipolysis; 100 mg/Kg i.p.) [%]
1 | COc1ccc(NC(=O)Oc2cccc3ccoc23)cc1 [Example 1, 7-Benzofuranyl N-(4-methoxyphenyl)carbamate] | 300 | 16 | 97 |  | 
2 | COc1ccc(NC(=O)Oc2cccc3ccoc23)c(OC)c1 [Example 2, 7-Benzofuranyl N-(2,4-dimethoxy)phenyl carbamate] | 300 | 40 |  | 71 | 
3 | COc1ccc(NC(=O)Oc2cccc3ocnc23)cc1 [Example 4, 4-Benzoxazoyl N-(4-methoxyphenyl)carbanamate] | 2400 | 79 |  |  | 40
4 | O=C(NC1CCCCC1)Oc1cccc2ccoc12 [Example 3, 7-Benzofuranyl N-(cyclohexyl)carbamate] | 12000 | 10 |  | 26 | 
